Data on four compounds can be found in patent US9120766B2, “Methods of making cocrystals” (Aptuit (West Lafayette), LLC, priority 2011, dated 2015).

The conditions of series [1]: literature; cited from earlier work.
For series [2] the following is noted: literature (López-Nicolás 2009); cited from earlier work.
Series [3] is described as follows: Solubility estimates at ambient temperature (gravimetric or incremental solvent addition). The note with it: thermodynamic from solid.
Another series can be described thus: physchem. The following applies: thermodynamic from solid.

≈ marks a conversion by molar mass, not a printed value.

As for `COc1cc(/C=C/c2ccc(O)cc2)cc(OC)c1` [Pterostilbene], the Bioavailability entry in series [1] was “poor bioavailability”. The Solubility in water result in series [2] is reported as “poor solubility in water”. Besides, the solubility in series [3] (ACN, organic solvent or mixture, solvent ACN, ambient temperature) was more than 203 mg/mL; in series [3] (EtOAc, organic solvent or mixture, solvent EtOAc, ambient temperature), more than 201 mg/mL; in series [3] (EtOH, organic solvent or mixture, solvent EtOH, ambient temperature), 410 mg/mL (≈ 1600 mM); in series [3] (MEK, organic solvent or mixture, solvent MEK, ambient temperature (Table 1)), more than 200 mg/mL; in series [3] (MTBE, organic solvent or mixture, solvent MTBE, ambient temperature), more than 200 mg/mL; in series [3] (heptane, organic solvent or mixture, solvent Heptane, ambient temperature), less than 2 mg/mL. The solubility in series [3] (isopropanol/water with water content 70% and higher, aqueous with cosolvent or surfactant or cyclodextrin) is not above 2 mg/mL; in series [3] (isopropanol:water 40:60, aqueous with cosolvent or surfactant or cyclodextrin, 40:60 isopropanol to water mixture) it was approximately 22 mg/mL (≈ 85.8 mM); in series [3] (isopropyl alcohol (IPA), organic solvent or mixture, solvent IPA (isopropyl alcohol), ambient temperature), 399 mg/mL (≈ 1560 mM); in series [3] (water, solvent Water, ambient temperature), 0.02 mg/mL (≈ 0.078 mM); in series [3] (water:IPA 55:45, aqueous with cosolvent or surfactant or cyclodextrin, solvent Water:IPA 55:45, ambient temperature), 22 mg/mL (≈ 85.8 mM); in series [3] (water:IPA 60:40, aqueous with cosolvent or surfactant or cyclodextrin, solvent Water:IPA 60:40, ambient temperature) it was 22 mg/mL (≈ 85.8 mM). Also, the solubility in series [3] (water:IPA 70:30, aqueous with cosolvent or surfactant or cyclodextrin, solvent Water:IPA 70:30, ambient temperature) was 2 mg/mL (≈ 7.8 mM); in series [3] (water:ethanol 50:50 v/v, aqueous with cosolvent or surfactant or cyclodextrin, solvent system Water:ethanol 50:50 v/v, ambient temperature), 54 mg/mL (≈ 211 mM).
In “physchem” (aqueous with cosolvent or surfactant or cyclodextrin), `C1CNCCN1` [piperazine] displayed a solubility of more than 324 mg/mL.
Regarding `NC(=O)c1cccnc1` [nicotinamide], the solubility in the series “physchem” (organic solvent or mixture) worked out at 42 mg/mL (≈ 344 mM).
The same measure, in the same setting: as for `CC(=O)[C@H]1CC[C@H]2[C@@H]3CCC4=CC(=O)CC[C@]4(C)[C@H]3CC[C@]12C` [Progesterone, reference compound], the figure is 30 mg/mL (≈ 95.4 mM).
